Measured values published in patent publication US20170143674A1, “Use of Glutaryl Histamine for the Treatment of Respiratory Tract Diseases” (LTD "VALENTA-INTELLEKT", priority 2011, published 2017).
Entries after “also recorded” stand apart in the source; their conditions may differ. Read-outs that look alike come from different tables or passages of the source. Marks after values point to notes of the source that are not given here.

Legend:
lacunar tonsillitis = test: open randomized comparative trial in lacunar tonsillitis; type: in vivo, human; conditions: 90 mg per day for 5 days with standard therapy
Experimental: The effectiveness of glutaryl histamine for the treatment of lacunar tonsillitis was studied in an open randomized and comparative trial.
The trial included 60 patients which were under medical supervision. When admitted to hospital, patients were randomized into two groups by a random sampling technique. The patients of the first group (30 subjects) received glutaryl histamine in an amount of 90 mg (1 pill) per day for 5 days (450 mg course dose) and standard therapy comprising antibacterial medicaments (penicillin 1 g I.M. 4 times a day or cefasoline 1 g I.M. 3 times a day for 7 days) and nosotropic agents. The patients of the second group (30 subjects) received only standard therapy.
Laboratory analysis included: general blood test, determination of C-reactive protein, and microbiological analysis of tonsil smears. Laboratory data were analyzed on day 6 of the treatment. […]
Statistical treatment of the obtained results. Values of quantitative variables were expressed as M±SE, wherein M is a mean value, and SE is a standard error of the mean. […]

[1] = system: acute respiratory distress syndrome (ARDS); test: ARDS model, multiple-dose intravenous LPS (LD30); type: in vivo, rat; conditions: for Died: total number 24
Experimental: Since an intravenous administration of lipopolysaccharide (LPS) to animals is one of the most acceptable models for studying the pathogenesis, pathomorphological changes and consequences of acute respiratory distress syndrome, this model was used in this example. Tested medicament glutaryl histamine was administered for 9 days after the first administration of LPS, i.e. glutaryl histamine was administered for 12 days in total (3 days before the induction of ARDS and 9 days during and after the induction). The exception was dexamethasone since, according to the literature data and the information leaflet, long-time administration of steroidal anti-inflammatory agents can cause severe side effects. For this reason, dexamethasone was administered according to the following schedule: 49, 24 and 1 hour before the induction of ARDS in a dose of 5 mg/kg, for 3 days after the first injection of LPS in the same dose; the medicament was withdrawn by a gradual dose reduction for 3 days. Thus, dexamethasone was administered 9 times.
At this step, animals were administered LPS at more lower dose, but for longer time period. They were received 2 mg/kg on days 1 and 2, and 3 and 4 mg/kg on days 3 and 4, respectively. The maximum mortality rate, similarly to the single-dose administration of LD70, was on the first day. On eighth day, mortality reached 33%.
The second step of the experiment comprises the evaluation of both the mortality rate of the animals with calculation of the protective index and narrower indexes used for determination of a specific protection provided by glutaryl histamine in ARDS. As was disclosed above, a lower dose of LPS (LD30) was used at the second stage. In addition, LPS was administered every day for 4 days. This method of administration was aimed at achieving the maximum disorder exactly in the lung for subsequent evaluation of possible protective action of glutaryl histamine.

[2] = system: acute rhinosinusitis induced by intranasal administration of formalin; type: in vivo, rat; conditions: for The number of caliciform cells within 1 mm of the mucosal membrane of the nasal septum: M ± m; for Mucopurulent catarrh (number of rats) / Mucous catarrh (number of rats) / Without changes (number of rats, mucous membrane in the nasal passages, macroscopic): n = 10
Experimental: Activity of glutaryl histamine was studied in an experimental model of acute rhinosinusitis (ARS).
Administration of 20 μl of 7.5% formalin to the rat nasal passages leads to the development of a clinical picture similar to the symptoms of acute rhinosinusitis in a human.
The tested medicament and reference medicaments were administered for 7 days after administration of 7.5% formalin. Normal saline solution was used as placebo. The animals were subjected to euthanasia on day 8 after induction of experimental acute rhinosinusitis by method of air embolism. During necropsy, nasal passages of all animals were sampled. The obtained material was placed into 10% neutral-buffered formalin for further histological analysis.
The mucous and submucous membranes of both nasal passages (respiratory and olfactory regions) of the experimental animals were subjected to a morphological analysis of the specific activity of glutaryl histamine.
After the clinical phase of the experiment, the material derived from the animals was subjected to the standard treatment to prepare histological paraffin sections with a thickness of 3 to 5 μm. The sections were stained with hematoxylin and eosin for a microscopic study. Comparison and histological analysis of changes were performed versus the group of intact rats.
The main pathological processes inherent in experimental acute rhinosinusitis, such as vascular congestion in mucous membrane, hyperplasia and necrosis of the epithelium, the number of caliciform cells within 1 mm of the mucous membrane in the nasal septum, were evaluated by a semi-quantitative method to evaluate the degree of pathophysiological changes in histological, histochemical and morphological studies.
The microscopic analysis of exudative disorder developed in rats with acute rhinitis was aimed at measuring the number of caliciform cells comprising acidic mucus (Table 3).

[3] = Glutaryl histamine 27 mg/kg, listed as Glutaryl histamine

O=C(O)CCCC(=O)NCCc1c[nH]cn1 [glutaryl histamine]
tolerability / undesirable symptoms (lacunar tonsillitis): well tolerated; also recorded: none of the cases had undesirable symptoms | IP (%) (protective index) ([1]; Glutaryl histamine 0.5 mg/kg): 62.5% | M (%) (mortality rate) ([1]; Glutaryl histamine 0.5 mg/kg): 12.5% | S (%) (survival rate) ([1]; Glutaryl histamine 0.5 mg/kg): 87.5% | Died ([1]; Glutaryl histamine 0.5 mg/kg): 3 | IP (%) (protective index) ([1]; Glutaryl histamine 27 mg/kg): 75% | M (%) (mortality rate) ([1]; Glutaryl histamine 27 mg/kg): 8.3% | S (%) (survival rate) ([1]; Glutaryl histamine 27 mg/kg): 91.7% | IP (%) (protective index) [1, 3]: 75.0% | Died ([1]; Glutaryl histamine 27 mg/kg): 2 | The number of caliciform cells within 1 mm of the mucosal membrane of the nasal septum ([2]; Glutaryl histamine 9 mg/kg): 29.0 ± 2.7* ** | Mucopurulent catarrh (number of rats) ([2]; Glutaryl histamine 9 mg/kg): 3 | Mucous catarrh (number of rats) ([2]; Glutaryl histamine 9 mg/kg): 4 | Without changes (number of rats, mucous membrane in the nasal passages, macroscopic) ([2]; Glutaryl histamine 9 mg/kg): 3 | The number of caliciform cells within 1 mm of the mucosal membrane of the nasal septum ([2]; Glutaryl histamine 27 mg/kg): 19.6±2.4 | The number of caliciform cells within 1 mm of the mucosal membrane of the nasal septum [2, 3]: 19.6 ± 2.4 | Mucopurulent catarrh (number of rats) ([2]; Glutaryl histamine 27 mg/kg): 1 | Mucous catarrh (number of rats) ([2]; Glutaryl histamine 27 mg/kg): 1 | Without changes (number of rats, mucous membrane in the nasal passages, macroscopic) ([2]; Glutaryl histamine 27 mg/kg): 8 | The number of caliciform cells within 1 mm of the mucosal membrane of the nasal septum ([2]; Glutaryl histamine 45 mg/kg): 23.9 ± 1.7* ** | Mucopurulent catarrh (number of rats) ([2]; Glutaryl histamine 45 mg/kg): 0 | Mucous catarrh (number of rats) ([2]; Glutaryl histamine 45 mg/kg): 0 | Without changes (number of rats, mucous membrane in the nasal passages, macroscopic) ([2]; Glutaryl histamine 45 mg/kg): 10
